Reference: patent US20200308192A1, “NOVEL THIAZOLO[5,4-D]PYRIMIDINE DERIVATIVES AS INVERSE AGONISTS OF A2A ADENOSINE RECEPTORS” (Universita degli Studi di Ferrara, priority 2016, published 2020)
Like-named read-outs stand apart in the source and are kept apart here.

What was measured:
[1] = system: breast cancer cells MRMT-1; experiment: Cell proliferation assay (DELFIA BrdU); type: cell-based; details: 48 hours; for Effect on CGS 21680-induced proliferation of cancer cells: MRMT-1, compound 100 nM pre-treatment, CGS 21680 100 nM
Source text: For the experiments of cellular proliferation, the DELFIA® kit was used and a multimode plate reader Ensight® from PerkinElmer. The DELFIA® (dissociation-enhanced lanthanide fluorescence immunoassay) assay is based on Time-Resolved Fluorescence (TRF) and on the incorporation of the 5-bromo-2-deoxyuridine (BrdU) in the DNA filaments recently synthesised by the proliferating cells seeded on microplates. The incorporated BrdU is detected by using a monoclonal antibody conjugated with europium, a long-lived chelated lanthanide, and the fluorescence measured is proportional to the synthesis of DNA in the cells population present in each well. The MRMT-1 cells, breast cancer cells, were pre-treated with some of the antagonists under evaluation at the concentration of 100 nM (compounds 1, 5, 6, 7, 10 of the present invention) for 30 minutes, then stimulated with CGS 21680 100 nM and after 30 minutes the solution of BrdU (10 μl/well) was added. At the end of the incubation period of 48 hours 100 μl/well of Anti-BrdU-Eu (0.5 μg/ml) were added and the cells were incubated for 120 minutes at room temperature. After 4 washings, 200 μl of DELFIA® stimulator were added at room temperature for 15 minutes and the Eu-fluorescence was detected by means of the Ensight® reader from Perkin Elmer (Perkin Elmer, Milan, Italy).

[2] = biological target: T1, human adenosine A2A receptor (Homo sapiens, UniProt P29274); experiment: Competition binding, [3H]-ZM 241385, hA2A CHO membranes
T1 sequence (P29274 whole entry): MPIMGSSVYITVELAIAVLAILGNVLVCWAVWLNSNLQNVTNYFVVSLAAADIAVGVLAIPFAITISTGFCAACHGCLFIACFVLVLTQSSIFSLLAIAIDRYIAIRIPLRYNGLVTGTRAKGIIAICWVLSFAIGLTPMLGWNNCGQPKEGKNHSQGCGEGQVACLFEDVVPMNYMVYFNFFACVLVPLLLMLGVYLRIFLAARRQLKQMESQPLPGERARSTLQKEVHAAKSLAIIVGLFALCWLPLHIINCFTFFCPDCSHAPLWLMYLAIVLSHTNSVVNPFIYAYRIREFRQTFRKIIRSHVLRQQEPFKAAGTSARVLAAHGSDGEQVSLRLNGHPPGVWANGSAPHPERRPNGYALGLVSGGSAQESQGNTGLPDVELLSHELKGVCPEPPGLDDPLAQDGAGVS

[3] = biological target: T2, human adenosine A2B receptor (Homo sapiens, UniProt P29275); experiment: cAMP assay, inhibition of NECA-stimulated cAMP levels in hA2B CHO cells; details: read-out: Receptor hA2B IC50; cAMP stimulated by NECA (100 nM); mean ± SEM
T2 sequence (P29275 1-332): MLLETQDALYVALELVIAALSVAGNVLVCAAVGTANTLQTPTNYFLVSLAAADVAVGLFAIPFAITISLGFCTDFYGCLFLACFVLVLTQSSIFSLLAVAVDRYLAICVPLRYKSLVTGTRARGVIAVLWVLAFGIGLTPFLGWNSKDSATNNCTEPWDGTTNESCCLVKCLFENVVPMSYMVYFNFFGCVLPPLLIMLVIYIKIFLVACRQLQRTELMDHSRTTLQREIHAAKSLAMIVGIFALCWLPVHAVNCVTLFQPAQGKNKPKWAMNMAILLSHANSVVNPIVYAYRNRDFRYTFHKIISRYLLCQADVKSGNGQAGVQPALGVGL

[4] = biological target: T3, human adenosine A3 receptor (Homo sapiens, UniProt P0DMS8); experiment: Competition binding, [125I]-ABMECA, hA3 CHO membranes; details: mean ± SEM
T3 construct: expressed in transfected cells; host or cells: CHO cells (membrane preparation)
T3 sequence (P0DMS8 1-318): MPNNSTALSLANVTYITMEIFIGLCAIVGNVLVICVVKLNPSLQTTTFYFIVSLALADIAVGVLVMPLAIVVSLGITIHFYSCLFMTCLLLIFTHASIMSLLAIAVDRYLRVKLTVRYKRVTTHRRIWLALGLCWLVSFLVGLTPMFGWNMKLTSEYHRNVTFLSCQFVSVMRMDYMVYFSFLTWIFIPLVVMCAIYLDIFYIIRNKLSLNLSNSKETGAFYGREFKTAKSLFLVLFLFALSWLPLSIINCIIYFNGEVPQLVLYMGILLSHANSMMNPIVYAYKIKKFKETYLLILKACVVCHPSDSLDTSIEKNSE

Female CD1 mice [5] = experiment: Warm-water tail immersion test; type: in vivo; details: intraperitoneal
Description: (§1) Female CD1 mice (22-24 g) were obtained from Charles River (Milano, Italia). The animals were kept under standard environmental temperature conditions (22±2° C.) and under moisture-controlled conditions with 12 hours light/dark cycle and food and water ad libitum. The animals were acclimated to the laboratory settings for at least 1 hour before testing and were used only once throughout the experiments. All the procedures used in the present study were carried out in accordance with the European Communities Council Directives (86/609/EEC) and the National Laws and Policies (D.L.116/92) after authorization from the Italian Ministry for Health (4/2014-B). In addition, the experimental procedures were in agreement with the current guidelines for the care of laboratory animals and the ethical guidelines for investigations of experimental pain in conscious animals (Couto M. Methods Mol Biol 2011; 770:579-599).
The warm-water tail immersion assay was performed using a water thermostated bath at a temperature maintained at 52° C. The compounds under evaluation were dissolved in DMSO and then diluted in saline solution. The carrier consists of saline solution and 5% of DMSO. Before intraperitoneally injecting the compound, the natural time of response of the mice was determined and the distal part of the tail was then immersed in the thermostated bath. The latency in responding to the heat stimulus with a vigorous flexion of the tail was measured by means of a manual stopwatch. A 20 seconds maximum cut-off time was imposed to prevent tissue damage. The latency of the tail withdrawal was then tested 15 minutes after injection of the compound.
(§2) The statistical analysis of the data was performed using ANOVA followed by Dunnett's test. […] KH and KL were obtained by using a two sites binding model and Graph PAD Prism (San Diego, Calif., USA). The values of IC50 obtained in the cAMP assays were calculated by non-linear regression analysis using the equation for a sigmoid concentration-response curve. All data are expressed as the mean±SEM of four independent experiments each performed in duplicate for in vitro assays and n=8-10 mice/group for in vivo assays.

Female CD1 mice [6] = experiment: Writhing test (acetic acid-induced abdominal constrictions); type: in vivo; details: for ED50: Mus musculus, ip, 15 minutes before acetic acid; for Dose-response curve, Writhing Test: P<0.001, one-way ANOVA
Description: as §1
The acetic acid-induced writhing response was performed after intraperitoneal injection of 10 ml/Kg of 0.6% acetic acid solution. The response to the abdominal constrictions induced by acetic acid was evaluated after the intraperitoneal injection of 10 ml/kg of a 0.6% solution of acetic acid. The compounds under evaluation were dissolved in DMSO and then diluted in a saline solution. The carrier consists of saline solution and 5% of DMSO. A writhe is indicated by stretching of the abdomen followed by the extension of the hind limbs. The animals (8 mice per group) were placed singly in a glass cylinder and the number of writhing episodes of abdominal contractions was counted in a 30 minutes period. The compounds were administered intraperitoneally 15 minutes before injection of acetic acid solution.
as §2

[7] = biological target: T4, human adenosine A1 receptor (Homo sapiens, UniProt P30542); experiment: Competition binding, [3H]-DPCPX, hA1 CHO membranes; details: read-out: Receptor hA1 Ki, mean ± SEM
T4 sequence (P30542 1-326): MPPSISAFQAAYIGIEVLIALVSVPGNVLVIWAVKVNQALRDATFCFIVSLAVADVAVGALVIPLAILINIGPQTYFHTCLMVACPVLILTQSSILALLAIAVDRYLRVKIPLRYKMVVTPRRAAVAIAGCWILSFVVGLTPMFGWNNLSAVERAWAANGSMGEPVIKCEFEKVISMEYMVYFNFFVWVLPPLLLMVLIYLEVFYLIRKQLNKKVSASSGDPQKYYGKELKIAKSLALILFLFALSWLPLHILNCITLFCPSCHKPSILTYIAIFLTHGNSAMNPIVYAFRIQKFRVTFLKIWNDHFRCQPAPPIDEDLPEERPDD

[8] = biological target: T1, human adenosine A2A receptor; experiment: cAMP assay in hA2A CHO cells, basal or with CGS 21680; type: cell-based; set-up: expressed in transfected cells; host or cells: CHO cells; details: for IC50: mean ± SEM
Description: For the membranes preparation the culture medium was removed, and the cells were washed with a saline phosphate-buffered solution collected with hypotonic buffer (5 mM Tris HCl, 1 mM EDTA, pH 7.4).
CHO cells transfected with the adenosine receptors were washed with a phosphate-buffered saline solution, detached with trypsin and centrifuged for 10 minutes at 200 g. […] The reaction was terminated by addition of cold 6% trichloroacetic acid (TCA). The TCA suspension was centrifuged at 2000 g for 10 minutes at 4° C. and the supernatant was extracted four times with diethyl ether with water. The final aqueous solution was tested for the cAMP levels by a competition protein binding assay with a cAMP-binding protein. The standard samples of cAMP (0-10 pmoli) were added to each test tube containing the incubation buffer (trizma base 0.1 M, aminophylline 8.0 mM, 2 mercaptoethanol 6.0 mM, pH 7.4) and [^3H]-cAMP. The binding protein previously prepared from beef adrenals, was added to the samples previously incubated at 4° C. for 150 minutes, and after the addition of charcoal were centrifuged at 2000 g for 10 min.
as §2

[9] = CGS 21680 (10 nM), read-out: IC50 cAMP, in presence of CGS 21680
[10] = CGS 21680 (10 nM), read-out: Emax cAMP, in presence of CGS 21680
[11] = basal cAMP, read-out: IC50 cAMP, in absence of CGS 21680
[12] = efficacy versus basal cAMP production, read-out: Emax cAMP, in absence of CGS 21680

Compound	Ki [2] [nM]	IC50 [3] [nM]	Ki [4] [nM]	Ki [7] [nM]	IC50 [8, 9] [nM]	Emax [8, 10] [%]	IC50 [8, 11] [nM]	Emax [8, 12] [%]	Effect on proliferation of cancer cells ([1]; MRMT-1, CGS 21680 100 nM)	ED50 (Female CD1 mice [5]; Mus musculus, ip, 0.25 h, 52° C., 15 minutes after injection) [mg/kg]	Anti-nociceptive activity, tail immersion test (Female CD1 mice [5])	Minimum effective dose, tail immersion test (Female CD1 mice [5]) [mg/kg]	ED50 (Female CD1 mice [6]; intraperitoneal) [mg/kg]	Dose-response curve, Writhing Test (Female CD1 mice [6])	ED50 times lower than ZM 241385, Writhing Test (Female CD1 mice [6]; intraperitoneal)	ED50 times lower than morphine, Writhing Test (Female CD1 mice [6]; intraperitoneal) [times]	Effect on CGS 21680-induced proliferation of cancer cells [1]
CCNC(=O)[C@H]1O[C@@H](n2cnc3c(N)nc(NCCc4ccc(CCC(=O)O)cc4)nc32)[C@H](O)[C@@H]1O [CGS 21680, reference compound]									able to increase the proliferation of the cancer cells								
Nc1nc(NCc2ccco2)nc2sc(-c3ccco3)nc12 [Compound 5, 2-(furan-2-yl)-N^5-(furan-2-ylmethyl)[1,3]thiazolo[5,4-d]pyrimidin-5,7-diamine]	1.73 ± 0.15	82 ± 9	4.72 ± 0.38	38 ± 4	0.04 ± 0.004	133 ± 13	0.0016 ± 0.0002	64									able to reduce the proliferation of cancer cells
Nc1nc(NCc2cccnc2)nc2sc(-c3ccco3)nc12 [Compound 7, 2-(furan-2-yl)-N^5-(pyridin-3-ylmethyl)[1,3]thiazolo[5,4-d]pyrimidin-5,7-diamine]	0.68 ± 0.05	109 ± 11	18.2 ± 1.7	7.12 ± 0.65	0.059 ± 0.006	126 ± 12	0.011 ± 0.001	61									able to reduce the proliferation of cancer cells
Nc1nc(NCCc2ccc(O)cc2)nc2nc(-c3ccco3)nn12 [ZM 241385, reference compound]			683 ± 64								no effect up to 10 mg/kg		1.37 ± 0.108	dose-dependent effect			

Now from value to molecule, other results behind:

Ki [2] [nM]	IC50 [3] [nM]	Ki [4] [nM]	Ki [7] [nM]	IC50 [8, 9] [nM]	Emax [8, 10] [%]	IC50 [8, 11] [nM]	Emax [8, 12] [%]	Compound	Effect on proliferation of cancer cells ([1]; MRMT-1, CGS 21680 100 nM)	ED50 (Female CD1 mice [5]; Mus musculus, ip, 0.25 h, 52° C., 15 minutes after injection) [mg/kg]	Anti-nociceptive activity, tail immersion test (Female CD1 mice [5])	Minimum effective dose, tail immersion test (Female CD1 mice [5]) [mg/kg]	ED50 (Female CD1 mice [6]; intraperitoneal) [mg/kg]	Dose-response curve, Writhing Test (Female CD1 mice [6])	ED50 times lower than ZM 241385, Writhing Test (Female CD1 mice [6]; intraperitoneal)	ED50 times lower than morphine, Writhing Test (Female CD1 mice [6]; intraperitoneal) [times]	Effect on CGS 21680-induced proliferation of cancer cells [1]
6.45 ± 0.57	313 ± 29	36 ± 3	3.54 ± 0.32					COc1ccccc1CNc1nc(N)c2nc(-c3ccco3)sc2n1 [Compound 1, 2-(furan-2-yl)-N^5-(2-methoxybenzyl)[1,3]thiazolo[5,4-d]pyrimidin-5,7-diamine]		0.134 ± 0.011	highest analgesic activity	0.01	0.0328 ± 0.0021	dose-dependent effect	approximately 42 times	3.75	
3.82 ± 0.31	75 ± 8	6.43 ± 8	12.5 ± 1.1	0.036 ± 0.003	132 ± 12	0.0017 ± 0.0002	61	Nc1nc(NCc2cccs2)nc2sc(-c3ccco3)nc12 [Compound 6, 2-(furan-2-yl)-N^5-(thiophen-2-ylmethyl)[1,3]thiazolo[5,4-d]pyrimidin-5,7-diamine]									able to reduce the proliferation of cancer cells
18 ± 2	112 ± 11	65 ± 6	4.92 ± 0.37	0.045 ± 0.004	138 ± 13	0.0064 ± 0.0005	62	Nc1nc(NCCc2cccs2)nc2sc(-c3ccco3)nc12 [Compound 10, 2-(furan-2-yl)-N^5-(2-(thiophen-2-yl)ethyl)[1,3]thiazolo[5,4-d]pyrimidin-5,7-diamine]									able to reduce the proliferation of cancer cells
